Reference: US20240252454A1, “COMPOSITION COMPRISING AN INHIBITOR OF MITOCHONDRIAL TRANSCRIPTION” (LEAD DISCOVERY CENTER GMBH, priority 2021, published 2024)

What was measured:
[1] = PK and toxicological studies, plasma and liver concentrations; format: in vivo; details: oral combination of the IMT and Venetoclax in 0.5% methyl cellulose in water, NBSGW mice, 4 hours, plasma and liver (FIG. 4)
Experimental: Combinations s of 2-[(3R)-1-[(2R)-2-[4-(2-chloro-4-fluoro-phenyl)-2-oxo-chromen-7-yl]oxypropanoyl]-3-piperidyl]acetic acid and Venetoclax were administered orally in a formulation of 0.5% methyl cellulose in water, before the respective substance concentrations (y-axis) of Venetoclax (left) or 2-[(3R)-1-[(2R)-2-[4-(2-chloro-4-fluoro-phenyl)-2-oxo-chromen-7-yl]oxypropanoyl]-3-piperidyl]acetic acid (right) after 4 hours and extraction from blood plasma or liver tissue were analysed by LC-MS. Error bars indicate the standard deviation around the mean of the multiple measurements.
For this, a vehicle formulation suitable for the oral administration of the combination of Venetoclax and 2-[(3R)-1-[(2R)-2-[4-(2-chloro-4-fluoro-phenyl)-2-oxo-chromen-7-yl]oxypropanoyl]-3-piperidyl]acetic acid was prepared to examine its pharmacokinetic suitability. Since the formulations based on ethanol, PEG-400 and Phosal that have been published for Venetoclax have not proven to be suitable for generating an administrable solution or suspension of IMT and Venetoclax, a simplified formulation of 0.5% methyl cellulose in water was prepared, which was tested initially in PK and toxicological studies in NBSGW mice (FIG. 4). […] On the other hand, doses that could be safely used were established in this mouse model, with which the subsequent studies could be carried out.

A2780 = assay: CellTiter-GLO (CTG) assay, combinatorial matrix; format: cell-based; details: for Measured residual activity (%) based on an untreated control group (=100%): A2780, 72 h, cellular ATP content (CellTiter-GLO)
Experimental: To determine the in vitro cellular viability, cellular ATP concentrations were measured using a luminescence-based homogenous assay format, as described here. […] Optimal cell density for each cell line was determined to guarantee linearity. For viability assays with compounds, cells were then seeded at a density of 200 to 1000 per well in 25 μl in 384-well plates (Greiner Bio-One, Frickenhausen, Germany). After overnight incubation at 37° C./5% CO2, 25 nl or 75 nl compounds were added to each sample well by using BIOMEK FXP Laboratory Automation Workstation (Beckman Coulter, USA). Wells with cells and 0.1% or 0.3% DMSO in culture medium were used as positive controls, wells with cells and 10 μM staurosporine (Selleck Chemicals, Huston, USA) in culture medium were used as negative controls. Upon incubation with compounds for 72 h at 37° C./5% CO2 25 μl Cell Titer Glo reagent (Promega, Madison, USA, European Pat. No. 1131441, U.S. Pat. Nos. 7,083,911, 7,452,663 and 7,732,128) 1:2 diluted with cell culture medium) was added to each well to determine cell viability. 384well-plates were placed for 2 min on an orbital microplate shaker and incubated for further 10 min at room temperature resulting in a stabilization of light signal. Luminescence was measured by Envision Plate Reader (Perkin Elmer, USA).
All in vitro cell culture experiments were carried out under near physiological glucose concentrations (5 mM) in at least two independent replicates.

[2] = tested on: A2780 ovarian carcinoma xenograft; assay: in vivo xenograft study with IMT and MEKi in A2780
Experimental: Time course of tumour growth (top) and body weight change (bottom). Transplant with A2780 on day 0, stratification on day six into six groups (n=8). Treatment with vehicle formulation, twice daily 25 mg/kg or 12.5 mg/kg Selumetinib, once daily 100 mg/kg (3S)-1-[(2R)-2-[4-(2-chloro-4-fluoro-phenyl)-2-oxo-chromen-7-yl]oxypropanoyl]piperidine-3-carboxylic acid, or the combination of IMT with 12.5 mg/kg MEKi or 25 mg/kg MEKi as indicated. Error bars indicate the standard deviation of the respective group. * indicates significant differences from the control group (nonparametric Whitnes-U test, p<0.05).
Female NMRI: nu/nu mice were injected subcutaneously with the ovarian carcinoma cell line and, after reaching a palpable tumour volume of 0.2 cm3, were randomized and divided into groups of eight animals each. In addition to a control group, which was administered only with the vehicle formulation, additional groups were given 100 mg/kg (3S)-1-[(2R)-2-[4-(2-chloro-4-fluoro-phenyl)-2-oxo-chromen-7-yl]oxypropanoyl]piperidine-3-carboxylic acid, 12.5 mg/kg AZD6244, 25 mg/kg AZD6244 or the combination of 100 mg/kg (3S)-1-[(2R)-2-[4-(2-chloro-4-fluoro-phenyl)-2-oxo-chromen-7-yl]oxypropanoyl]piperidine-3-carboxylic acid and 12.5 or 25 mg/kg AZD6244 was administered. The substance was administered orally over 21 days, twice daily in 25% PEG400, 57% HPbCD. […]

HEC59 = assay: CellTiter-GLO (CTG) assay, combinatorial matrix; format: cell-based; details: 30 μM to 15 nM IMT + 30 μM to 40 nM BAY-876

CC1(C)CCC(CN2CCN(c3ccc(C(=O)NS(=O)(=O)c4ccc(NCC5CCOCC5)c([N+](=O)[O-])c4)c(Oc4cnc5[nH]ccc5c4)c3)CC2)=C(c2ccc(Cl)cc2)C1 [Venetoclax]
PK parameters, in particular the plasma and tissue concentrations [1]: do not significantly influence one another

C[C@@H](Oc1ccc2c(-c3ccc(F)cc3Cl)cc(=O)oc2c1)C(=O)N1CCC[C@H](C(=O)O)C1 [(3S)-1-[(2R)-2-[4-(2-chloro-4-fluoro-phenyl)-2-oxo-chromen-7-yl]oxypropanoyl]piperidine-3-carboxylic acid]
Measured residual activity (%) based on an untreated control group (=100%) (A2780; Teriflunomide 0 = IMT alone at the concentration (μM) in c1 of the row, IMT 0.12 µM): 32% | Measured residual activity (%) based on an untreated control group (=100%) (A2780; Teriflunomide 0 = IMT alone at the concentration (μM) in c1 of the row, IMT 15 µM): 28% | Measured residual activity (%) based on an untreated control group (=100%) (A2780; Teriflunomide 0.04 (μM) + IMT (μM) (30-0), IMT 0.12 µM): 31% | Measured residual activity (%) based on an untreated control group (=100%) (A2780; Teriflunomide 0.04 (μM) + IMT (μM) (30-0), IMT 0.47 µM): 28% | Measured residual activity (%) based on an untreated control group (=100%) (A2780; Teriflunomide 0.04 (μM) + IMT (μM) (30-0), IMT 7.5 µM): 27% | Measured residual activity (%) based on an untreated control group (=100%) (A2780; Teriflunomide 0.1 (μM) + IMT at the concentration (μM) in c1 of the row (30-0), IMT 0.23 µM): 29% | Measured residual activity (%) based on an untreated control group (=100%) (A2780; Teriflunomide 0.1 (μM) + IMT at the concentration (μM) in c1 of the row (30-0), IMT 7.5 µM): 22% | Measured residual activity (%) based on an untreated control group (=100%) (A2780; Teriflunomide 0.4 (μM) + IMT at the concentration (μM) in c1 of the row (30-0), IMT 0.06 µM): 32% | Measured residual activity (%) based on an untreated control group (=100%) (A2780; Teriflunomide 0.4 (μM) + IMT at the concentration (μM) in c1 of the row (30-0), IMT 7.5 µM): 22% | Measured residual activity (%) based on an untreated control group (=100%) (A2780; Teriflunomide 0.4 (μM) + IMT at the concentration (μM) in c1 of the row (30-0), IMT 15 µM): 25% | Measured residual activity (%) based on an untreated control group (=100%) (A2780; Teriflunomide 1.1 (μM) + IMT at the concentration (μM) in c1 of the row (30-0), IMT 0.06 µM): 30% | Measured residual activity (%) based on an untreated control group (=100%) (A2780; Teriflunomide 1.1 (μM) + IMT at the concentration (μM) in c1 of the row (30-0), IMT 0.94 µM): 23% | Measured residual activity (%) based on an untreated control group (=100%) (A2780; Teriflunomide 3.3 (μM) + IMT at the concentration (μM) in c1 of the row (30-0), IMT 0.06 µM): 24% | Measured residual activity (%) based on an untreated control group (=100%) (A2780; Teriflunomide 3.3 (μM) + IMT at the concentration (μM) in c1 of the row (30-0), IMT 0.47 µM): 23% | Measured residual activity (%) based on an untreated control group (=100%) (A2780; Teriflunomide 3.3 (μM) + IMT at the concentration (μM) in c1 of the row (30-0), IMT 30 µM): 22% | Measured residual activity (%) based on an untreated control group (=100%) (A2780; Teriflunomide 10 (μM) + IMT at the concentration (μM) in c1 of the row (30-0), IMT 0.12 µM): 23% | Measured residual activity (%) based on an untreated control group (=100%) (A2780; Teriflunomide 10 (μM) + IMT at the concentration (μM) in c1 of the row (30-0), IMT 0.94 µM): 19% | Measured residual activity (%) based on an untreated control group (=100%) (A2780; Teriflunomide 30 (μM) + IMT at the concentration (μM) in c1 of the row (30-0), IMT 0.03 µM): 19% | Measured residual activity (%) based on an untreated control group (=100%) (A2780; Teriflunomide 30 (μM) + IMT at the concentration (μM) in c1 of the row (30-0), IMT 30 µM): 13% | combination of IMT and GLUTi compared to treatment with only the GLUTi BAY-876 alone (A2780; A2780, CTG matrix, 30 μM to 15 nM IMT + 30 μM to 40 nM BAY-876): advantage of the combination | final tumour volume after completion of the study ([2]; 100 mg/kg IMT + 12.5 or 25 mg/kg AZD6244, oral, 21 days, compared to the same amounts of MEK inhibitor alone (FIG. 2)): advantage of the combination treatment | tolerability (changes in body weight, acute overt effects) ([2]; combination administration of IMT and AZD6244 over the course of the study): well tolerated | combination of IMT and GLUTi compared to treatment with only the GLUTi BAY-876 alone (HEC59): advantage of the combination
